Measurements: US9422292B2, “Bromodomain inhibitors and uses thereof” (Constellation Pharmaceuticals, Inc., priority 2011, dated 2016)
Where two headings read alike, the source gives them in different places.

How the values were obtained:
[1] = system: IL-6 secretion in THP-1 cells; test: Cell-based IL-6 quantification assay (ELISA, Mesoscale) in LPS-treated THP-1 cells; conditions: Homo sapiens, LPS 4 μg/mL, 16 h, ELISA value/CellTiter-Glo ratio
Experimental: C. Cell-Based IL-6 Quantification Assay (ELISA, Mesoscale Assay):
100,000 THP-1 cells were seeded in RPMI1640-10% FBS in 96-well plates. LPS (E. Coli Invitrogen) in RPMI−10% FBS at a final concentration of 4 μg/mL was added to the wells and the cells are then incubated in the presence of various concentrations of compounds for 16 h. Plates are spun ([…], 5 min), an aliquot of 25 uL supernatant is transferred in to an ELISA plate (Mesoscale technology, MSD) and the detection of IL-6 is performed using manufacturer's instructions. The amount of cells in each well is assessed using CellTiter-Glo® (Promega). The ratio of ELISA value/CellTiter-Glo value is used to calculate the percent of inhibition of IL-6 secretion.

BRD4 (BD1) = target: T1, BRD4 (BD1) (Homo sapiens, UniProt O60885); test: BRD4 AlphaLisa binding assay
T1 construct: His; made in house
Experimental: A. IC50 Measurements for Inhibitors Using BRD4 AlphaLisa Binding Assay.
Specifically, in a 384 well ProxiPlate BRD4 (BD1) (30 nM final) was combined with peptide (200 nM final) in 40 mM HEPES (pH 7.0), 40 mM NaCl, 1 mM DTT, 0.01% (w/v) BSA, and 0.008% (w/v) Brij-35 either in the presence of DMSO (final 1.2% DMSO) or compound dilution series in DMSO. After 20 minute incubation at room temperature Alpha streptavidin donor beads and AlphaLisa anti-Flag acceptor beads were added to a final concentration of 10 ug/mL each. After three hours equilibration plates were read on an Envision instrument and IC50s calculated using a four parameter non-linear curve fit.

[2] = system: MYC mRNA in MV4:11 (AML) cells; test: cMyc RNA quantification assay (QuantiGene) in MV4:11 cells; format: cell-based; conditions: Homo sapiens, 4 h, QuantiGene 2.0
Experimental: B. cMyc RNA Quantification Assay (QuantiGene® Assay):
MV4:11 (AML) cells were seeded in a 96-well plate and incubated in the presence of various concentrations of compounds for 4 h. Relative mRNA levels were quantitated by using QuantiGene 2.0 assay (Affymetrix) according to the manufacturer's recommendation. Signals were detected by using an Envision plate reader (Perkin-Elmer). Biological duplicates were averaged and normalized to vehicle (DMSO) control to calculate percent MYC mRNA levels.

[3] = BRD4 (BD1) 30 nM, biotinylated H4-tetraacetyl peptide 200 nM, read-out: BRD4 AlphaLisa

Row | Compound | IC50 [1] | IC50 (BRD4 (BD1); [3]) | IC50 [2] | IC50 (BRD4 (BD1))
1 | Cc1nnc2n1-c1ccc(-c3ccc(N)nc3)cc1NCC2 [Compound 6, 5-(1-methyl-5,6-dihydro-4H-benzo[b][1,2,4]triazolo[4,3-d][1,4]diazepin-8-yl)pyridin-2-amine] | > 10000 nM | 1000 to 10000 nM |  | 
2 | Cc1nnc2n1-c1ccc(-c3ccc(N)nc3)cc1N(C)CC2 [Compound 5, 5-(1,6-dimethyl-5,6-dihydro-4H-benzo[b][1,2,4]triazolo[4,3-d][1,4]diazepin-8-yl)pyridin-2-amine] | 1000 to 10000 nM | 1000 to 10000 nM |  | 
3 | CCNC(=O)CC1CN(c2ccc(Cl)cc2)c2ccccc2-n2c(C)nnc21 (stereo not shown) [Compound 10, 2-(6-(4-chlorophenyl)-1-methyl-5,6-dihydro-4H-benzo[b][1,2,4]triazolo[4,3-d][1,4]diazepin-4-yl)-N-ethylacetamide] | 1000 to 10000 nM | 1000 to 10000 nM |  | 
4 | Cc1nnc2n1-c1ccc(-c3cnc(N)nc3)cc1N(c1ccc(Cl)cc1)C[C@@H]2C [Compound 40, (S)-4H-[1,2,4]triazolo[4,3-a][1,5]benzodiaze-pine,5,6-dihydro-1,4-dimethyl-8-(2-aminopyrimidin-5-yl)-6-(4-chloro-phenyl)] | > 1000 nM | 1000 to 10000 nM |  | 
5 | Cc1nnc2n1-c1ccc(-c3ccc(N)nc3)cc1N(c1cnn(C)c1)C[C@H]2C [Compound 76, (R)-5-(1,4-dimethyl-6-(1-methyl-1H-pyrazol-4-yl)-5,6-dihydro-4H-benzo[b][1,2,4]triazolo[4,3-d][1,4]diazepin-8-yl)pyridin-2-amine] | 100 to 1000 nM |  | 100 to 1000 nM | 
6 | Cc1nnc2n1-c1ccccc1N(c1ccc(Cl)cc1)CC2CCO (stereo not shown) [Compound 9, 2-(6-(4-chlorophenyl)-1-methyl-5,6-dihydro-4H-benzo[b][1,2,4]triazolo[4,3-d][1,4]diazepin-4-yl)ethanol] | 1000 to 10000 nM | 1000 to 10000 nM |  | 
7 | CCC1CN(c2ccc(Cl)cc2)c2ccccc2-n2c(C)nnc21 (stereo not shown) [Compound 32] |  |  |  | 1000 to 10000 nM
8 | Cc1nnc2n1-c1ccccc1NC(C)C2 (stereo not shown) [Compound 12, 1,5-dimethyl-5,6-dihydro-4H-benzo[b][1,2,4]triazolo[4,3-d][1,4]diazepine] | > 10000 nM | > 10000 nM |  | 
9 | Cc1nnc2n1-c1ccc(-c3ccccc3)cc1NCC2 [Compound 7, 1-methyl-8-phenyl-5,6-dihydro-4H-benzo[b][1,2,4]triazolo[4,3-d][1,4]diazepine] | > 1000 nM | > 10000 nM |  | 
10 | Cc1nnc2n1-c1ccccc1N(c1ccc(Cl)cc1)CC21CC1CO (stereo not shown) [Compound 11, (6-(4-chlorophenyl)-1-methyl-5,6-dihydrospiro[benzo[b][1,2,4]triazolo[4,3-d][1,4]diazepine-4,1′-cyclopropan]-2′-yl)methanol] | 1000 to 10000 nM | 1000 to 10000 nM |  | 
11 | Cc1nnc2n1-c1ccc(C(=O)N3CCOCC3)cc1N(c1ccc(Cl)cc1)C[C@H]2C [Compound 56, 4-R-4H-[1,2,4]triazolo[4,3-a][1,5]benzodiazepine,5,6-dihydro-1,4-dimethyl-8-(morpholine-4-carbonyl)-6-(4-chloro-phenyl)] | > 1000 nM | 100 to 1000 nM |  | 
12 | Cc1nnc2n1-c1ccc(-c3cnn(C)c3)cc1N(c1ccc(C#N)cc1)C[C@@H]2C [Compound 45, (S)-4H-[1,2,4]triazolo[4,3-a][1,5]benzodiazepine,5,6-dihydro-1,4-dimethyl-8-(1-methyl-1H-pyrazol-4-yl)-6-(4-cyano-phenyl)] | > 1000 nM | 100 to 1000 nM |  | 
13 | Cc1nnc2n1-c1ccc(Br)cc1N(c1ccc(Cl)cc1)CC2 [Compound 13, 8-bromo-6-(4-chlorophenyl)-1-methyl-5,6-dihydro-4H-benzo[b][1,2,4]triazolo[4,3-d][1,4]diazepine] | 100 to 1000 nM | 100 to 1000 nM |  | 
14 | Cc1nnc2n1-c1ccc(-c3ccc(=O)[nH]c3)cc1N(c1ccc(S(C)(=O)=O)cc1)C[C@H]2C [Compound 78, (R)-5-(1,4-dimethyl-6-(4-(methylsulfonyl)phenyl)-5,6-dihydro-4H-benzo[b][1,2,4]triazolo[4,3-d][1,4]diazepin-8-yl)pyridin-2(1H)-one] |  | 100 to 1000 nM | 1000 to 10000 nM | 
15 | Cc1nnc2n1-c1ccccc1N(c1ccc(Cl)cn1)CC2 [Compound 8, 6-(5-chloropyridin-2-yl)-1-methyl-5,6-dihydro-4H-benzo[b][1,2,4]triazolo[4,3-d][1,4]diazepine] | 1000 to 10000 nM | 1000 to 10000 nM |  | 
16 | Cc1nnc2n1-c1ccc(-c3ccccc3)cc1N(C)CC2 [Compound 4, 1,6-dimethyl-8-phenyl-5,6-dihydro-4H-benzo[b][1,2,4]triazolo[4,3-d][1,4]diazepine] | > 10000 nM | > 10000 nM |  | 

Further lines, with some results ahead:

Row | IC50 [1] | IC50 (BRD4 (BD1); [3]) | IC50 [2] | Compound | IC50 (BRD4 (BD1))
17 | 1000 to 10000 nM | < 100 nM | 1000 to 10000 nM | Cc1nnc2n1-c1ccc(-c3ccc(N)nc3)cc1N(c1ccc(C(N)=O)cc1)CC2C (stereo in doubt) [Compound 70, (S)-4-(8-(6-aminopyridin-3-yl)-1,4-dimethyl-4H-benzo[b][1,2,4]triazolo[4,3-d][1,4]diazepin-6(5H)-yl)benzamide] | 
18 | < 100 nM | < 100 nM | < 100 nM | Cc1nnc2n1-c1ccc(-c3cnn(C)c3)cc1N(c1ccc(C#N)cc1)C[C@H]2C [Compound 44, (R)-4H-[1,2,4]triazolo[4,3-a][1,5]benzodiazepine, 5,6-dihydro-1,4-dimethyl-8-(1-methyl-1H-pyrazol-4-yl)-6-(4-cyano-phenyl)] | 
19 |  | 100 to 1000 nM |  | Cc1nnc2n1-c1cc(F)ccc1N(c1ccc(Cl)cc1)CC2C (stereo not shown) [Compound 35, 4H-[1,2,4]triazolo[4,3-a][1,5]benzodiazepine,5,6-dihydro-1,4-dimethyl-9-fluoro-6-(4-chloro-phenyl)] | 
20 | 1000 to 10000 nM | 100 to 1000 nM |  | Cc1nnc2n1-c1ccc(-c3ccccc3)cc1N(c1ccc(Cl)cc1)CC2 [Compound 14, 6-(4-chlorophenyl)-1-methyl-8-phenyl-5,6-dihydro-4H-benzo[b][1,2,4]triazolo[4,3-d][1,4]diazepine] | 
21 | 1000 to 10000 nM | < 100 nM | 1000 to 10000 nM | Cc1nnc2n1-c1ccc(-c3ccc(N)nc3)cc1N(c1ccc(N)nc1)C[C@H]2C [Compound 71, (R)-5,5′-(1,4-dimethyl-4H-benzo[b][1,2,4]triazolo[4,3-d][1,4]diazepine-6,8(5H)-diyl)dipyridin-2-amine] | 
22 | > 1000 nM | 100 to 1000 nM |  | Cc1nnc2n1-c1ccc(-c3cnn(C)n3)cc1N(c1ccc(C#N)cc1)C[C@@H]2C [Compound 74, (R)-4H-[1,2,4]Triazolo[4,3-a][1,5]benzodiazepine, 5,6-dihydro-1,4-dimethyl-8-(2-methyl-2H-1,2,3-triazole-4-yl)-6-(4-cyano-phenyl)] | 
23 |  | 100 to 1000 nM |  | Cc1nnc2n1-c1ccc(C#CC(C)(C)O)cc1N(c1ccc(Cl)cc1)CC2C (stereo not shown) [Compound 36, 4H-[1,2,4]triazolo[4,3-a][1,5]benzodiazepine,5,6-dihydro-1,4-dimethyl-8-(3-hydroxy-3-methylbut-1-ynyl)-6-(4-chloro-phenyl)] | 
24 |  | 100 to 1000 nM |  | Cc1nnc2n1-c1ccc(C#CC(C)(C)N)cc1N(c1ccc(Cl)cc1)CC2C (stereo not shown) [Compound 31, 4H-[1,2,4]triazolo[4,3-a][1,5]benzodiazepine,5,6-dihydro-1,4-dimethyl-8-(3-amino-3-methylbut-1-ynyll)-6-(4-chloro-phenyl)] | 
25 |  | < 100 nM | 100 to 1000 nM | Cc1nnc2n1-c1ccc(-c3cnc(N)cn3)cc1N(c1ccc(S(C)(=O)=O)cc1)C[C@H]2C [Compound 79, (R)-5-(1,4-dimethyl-6-(4-(methylsulfonyl)phenyl)-5,6-dihydro-4H-benzo[b][1,2,4]triazolo[4,3-d][1,4]diazepin-8-yl)pyrazin-2-amine] | 
26 |  | 100 to 1000 nM |  | Cc1nnc2n1-c1ccccc1N(c1ccc(Cl)cc1)CC21CC1 [Compound 34, 6-(4-chlorophenyl)-1-methyl-5,6-dihydrospiro[benzo[b][1,2,4]triazolo[4,3-d][1,4]diazepine-4,1′-cyclopropane]] | 
27 |  | 100 to 1000 nM |  | Cc1nnc2n1-c1ccc(Br)cc1N(c1ccc(Cl)cc1)CC21CC1 [Compound 33, 8-bromo-6-(4-chlorophenyl)-1-methyl-5,6-dihydrospiro[benzo[b][1,2,4]triazolo[4,3-d][1,4]diazepine-4,1′-cyclopropane]] | 
28 |  | < 100 nM |  | Cc1nnc2n1-c1ccc(-c3cnn(C)c3)cc1N(c1ccc(Cl)cc1)CC2 [Compound 30, 4H-[1,2,4]triazolo[4,3-a][1,5]benzodiazepine,5,6-dihydro-1methyl-8-(1-methyl-1H-pyrazol-4-yl)-6-(4-chloro-phenyl)] | 
